In patent US20240254119A1 (THIRD HARMONIC BIO, INC., priority 2022, published 2024):

Assay: Three time point assay for plasma, brain and testes distribution after oral dosing
Type: in vivo, rat
Details: rat, oral dosing, time point 2 h
Experimental: Exemplary compounds were tested for distribution in plasma, brain and testes tissue following oral dosing of the compounds in rats. Procedures and results are described below.
Male SD Rats were group-housed (up to four animals/sex/cage) in polysulfone cages with certified aspen wood bedding during acclimation and study period.
Certified rodent diet and water was provided to all animals ad libitum, unless fasting for study procedures.
Appropriate amount of test article was accurately weighed and mixed with an appropriate volume of vehicle to get a clear solution or a uniform suspension; vortexing or sonication in water bath may also be need. Animals were dosed within four hours after the formulation is prepared.
For PO dosing, the dose formulation was administered via oral gavage following facility SOPs. The dose volume was determined by the animals' body weight collected on the morning of dosing day. The dose was 10 mg/kg.
Each blood collection (about 1 mL per time point at one or more of 0.5 h, 2 h, 3 h, 5.3 h, and 7 h) was performed from jugular vein or other suitable site of each animal into pre-chilled commercial EDTA-K2 tubes and placed on wet ice until centrifugation.
Blood samples were processed for plasma by centrifugation at approximately 4° C., 3,200 g for 10 min. Plasma was collected respectively and transferred into pre-labeled 96 well plate or polypropylene tubes, quick frozen over dry ice and kept at −60° C. or lower until LC-MS/MS analysis.
Rat brain was perfused with PBS to remove blood before harvest.
After perfusion, brain and testis were homogenized using homogenizing buffer (15 mM PBS (pH7.4):MeOH=2:1) at the ratio of 1:9 (1 g tissue with 9 mL buffer, the dilution ratio is 10). The brain homogenate was kept at −60° C. or lower until LC-MS/MS analysis. General sample processing procedure (brain homogenate & testis homogenate) using 96-well plate: • 1). An aliquot of 40 μL unknown sample, calibration standard, quality control and dilution quality control (if have), single blank, and double blank sample was added to the 96-well plate respectively; • 2). Each sample (except the double blank) was quenched with 400 μL of IS1 respectively (double blank sample was quenched with 400 μL of I), and then the mixture was vortex-mixed for 10 min at 800 rpm and centrifuged for 15 min at 3220×g, 4° C.; • 3). An aliquot of 50 μL supernatant was transferred to another clean 96-well plate and centrifuged for 5 min at 3220×g, 4° C., then the supernatant was directly injected for LC-MS/MS analysis.
• 1. A LC-MS/MS method for the quantitative determination of test compound in biological matrix was developed under Non-GLP compliance. • 2. A calibration curve with at least 6 non-zero calibration standards was applied for the method including LLOQ. • 3. A set of QCs consisting of low, middle, and high concentrations were applied for the method. • 4. N in 1 cassette LC-MS/MS method was developed for samples coming from different studies and the interference among all cassette analytes was evaluated during the method development. • 5. Cassette administration assay was performed if the mass difference (Δmass) among different analytes was more than 4 Da. In this case, interference evaluation was not necessary.
• 1. If sample number within a batch was ≤12, at least one set of standard curve separated with two parts through begin and end of the sequence, was included in the run, and QCs were not required. The recommended injection order was C8, C6, C4, C2, study samples, C7, C5, C3, C1. • 2. If sample number within a batch was >12, one standard curve and two sets of QCs with low, middle and high concentrations were applied for bioanalysis. Meanwhile, QCs number should be more than 5% of study sample number. • 3. Samples with the same types of matrix in different studies were quantified in one analysis run by using the developed N in 1 cassette LC-MS/MS method. • 4. […]

Brain concentration	Kp brain/plasma	Kp testes/plasma	Plasma concentration	Testes concentration	Compound
101 ng/g	0.47	0.92	216 ng/mL	198 ng/g	Cc1cc(C)cc(Nc2ccc3ncc(C(=O)Nc4cc(-c5noc([C@H]6C[C@@H]6F)n5)ccc4C)n3c2)c1 [Compound I-299]
82.4 ng/g	0.21	1.19	389 ng/mL	464 ng/g	Cc1ccc(-c2noc(C3(N)CC4(CC(F)(F)C4)C3)n2)cc1NC(=O)c1cnc2ccccn12 [Compound I-307]
0 ng/g			16.7 ng/mL	0 ng/g	Cc1ccc(-c2noc(CC(=O)O)n2)cc1NC(=O)c1cnc2ccccn12 [Compound I-335]
3660 ng/g	1.64	1.35	2230 ng/mL	3010 ng/g	O=C(Nc1cc(-c2noc([C@H]3C[C@@H]3F)n2)ccc1Br)c1cnc2ccccn12 [Compound I-340]
1940 ng/g	1.19	1.27	1630 ng/mL	2060 ng/g	Cc1ccc(-c2noc(C3CC(OCCF)C3)n2)cc1NC(=O)c1cnc2ccccn12 (stereo not drawn) [Compound I-369]
28.2 ng/g	0.06	0.09	477 ng/mL	44.8 ng/g	Cc1ccc(-c2noc(C3(O)CC(F)(F)C3)n2)cc1NC(=O)c1cnc2ccccn12 [Compound I-380]
21.4 ng/g	0.53	1.49	40.6 ng/mL	60.7 ng/g	Cc1ccc(-c2noc([C@H]3C[C@@H]3F)n2)cc1NC(=O)c1cnc2ccc(C#N)cn12 [Compound I-384]

Compound	Brain concentration	Kp brain/plasma	Kp testes/plasma	Plasma concentration	Testes concentration
COC(=O)N1CC(c2nc(-c3ccc(Cl)c(NC(=O)c4cnc5ccccn45)c3)no2)C1 [Compound I-339]	603 ng/g	0.50	0.79	1200 ng/mL	947 ng/g
Cc1ccc(-c2noc([C@H]3CC(F)(F)CN3)n2)cc1NC(=O)c1cnc2ccccn12 [Compound I-359]	52.7 ng/g	0.02	0.12	2950 ng/mL	345 ng/g
Cc1nc(-c2ccc(C)c(NC(=O)c3cnc4ccccn34)c2)no1 [Compound I-360]	3420 ng/g	0.94	0.81	3650 ng/mL	2960 ng/g
